# Active and inactive are the calls of the source. The calls are words filed in the database; no cut-off is given here.
# Columns and labels:
# [1] = molecular target: T1, Vasopressin V2 receptor (Homo sapiens, UniProt P30518); assay: Antagonist activity at human AVPR2 at 20 uM by PathHunter beta-arrestin assay relative to control
# [2] = molecular target: T2, C-C chemokine receptor type 3 (Homo sapiens) (UniProt P51677); assay: Antagonist activity at human CCR3 expressed in CHO-K1 cells at 20 uM by PathHunter beta-arrestin assay relative to control; format: cell-based
# T2 sequence (whole entry): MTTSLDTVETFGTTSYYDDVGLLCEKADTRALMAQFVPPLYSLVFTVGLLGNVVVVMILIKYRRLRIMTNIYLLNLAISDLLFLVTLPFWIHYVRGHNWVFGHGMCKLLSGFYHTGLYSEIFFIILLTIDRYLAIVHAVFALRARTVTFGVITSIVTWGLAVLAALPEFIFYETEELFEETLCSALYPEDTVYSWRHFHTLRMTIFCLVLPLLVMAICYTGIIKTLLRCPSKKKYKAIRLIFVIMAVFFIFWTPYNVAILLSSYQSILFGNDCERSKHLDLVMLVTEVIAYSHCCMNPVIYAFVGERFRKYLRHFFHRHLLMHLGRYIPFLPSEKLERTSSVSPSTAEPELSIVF
# [3] = molecular target: T3, C-C chemokine receptor type 8 (Homo sapiens, UniProt P51685); assay: Antagonist activity at human CCR8 expressed in CHO-K1 cells at 20 uM by PathHunter beta-arrestin assay relative to control; format: cell-based; settings: filed as antagonist
# T3 sequence (P51685 whole entry): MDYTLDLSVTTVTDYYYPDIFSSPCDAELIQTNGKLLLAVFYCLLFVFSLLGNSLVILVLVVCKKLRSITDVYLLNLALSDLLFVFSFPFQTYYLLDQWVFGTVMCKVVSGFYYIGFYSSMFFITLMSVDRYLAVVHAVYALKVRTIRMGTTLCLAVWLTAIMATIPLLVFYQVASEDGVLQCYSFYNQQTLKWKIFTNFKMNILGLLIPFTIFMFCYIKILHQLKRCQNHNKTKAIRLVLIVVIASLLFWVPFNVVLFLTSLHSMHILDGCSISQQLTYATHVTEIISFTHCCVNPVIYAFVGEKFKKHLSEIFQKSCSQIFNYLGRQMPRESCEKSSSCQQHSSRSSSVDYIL
# [4] = molecular target: T4, CX3C chemokine receptor 1 (Homo sapiens) (UniProt P49238); assay: Antagonist activity at human CX3CR1 expressed in CHO-K1 cells at 20 uM by PathHunter beta-arrestin assay relative to control; format: cell-based; settings: filed as antagonist
# T4 sequence (whole entry): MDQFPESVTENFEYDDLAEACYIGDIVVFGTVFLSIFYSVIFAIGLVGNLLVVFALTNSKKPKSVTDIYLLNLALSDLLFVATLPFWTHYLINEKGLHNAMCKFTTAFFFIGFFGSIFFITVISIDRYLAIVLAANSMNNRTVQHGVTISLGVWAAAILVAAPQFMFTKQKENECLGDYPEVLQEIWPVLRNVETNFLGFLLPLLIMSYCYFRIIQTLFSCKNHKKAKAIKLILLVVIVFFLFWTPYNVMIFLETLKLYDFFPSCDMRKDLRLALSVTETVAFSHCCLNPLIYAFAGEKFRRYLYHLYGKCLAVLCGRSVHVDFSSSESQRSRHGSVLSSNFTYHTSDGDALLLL
# [5] = molecular target: T5, C-X-C chemokine receptor type 4 (Homo sapiens, UniProt P61073); assay: Antagonist activity at human CXCR4 expressed in mouse C2C12 cells at 20 uM by PathHunter beta-arrestin assay relative to control; format: cell-based; settings: filed as antagonist
# T5 sequence (P61073 whole entry): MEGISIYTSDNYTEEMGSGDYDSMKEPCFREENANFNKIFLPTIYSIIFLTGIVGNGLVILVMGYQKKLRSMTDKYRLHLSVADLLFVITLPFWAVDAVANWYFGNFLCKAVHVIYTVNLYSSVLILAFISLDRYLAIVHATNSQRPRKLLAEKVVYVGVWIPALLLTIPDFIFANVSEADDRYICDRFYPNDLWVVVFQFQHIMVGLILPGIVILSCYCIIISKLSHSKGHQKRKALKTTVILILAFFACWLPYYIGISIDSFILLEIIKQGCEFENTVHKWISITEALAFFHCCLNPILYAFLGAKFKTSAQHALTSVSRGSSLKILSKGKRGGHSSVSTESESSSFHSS
# [6] = molecular target: D(2) dopamine receptor (Homo sapiens) (UniProt P14416); assay: Antagonist activity at human DRD2L expressed in CHO-K1 cells at 20 uM by PathHunter beta-arrestin assay relative to control; format: cell-based
# Chain of D(2) dopamine receptor (Homo sapiens) (P14416 whole entry): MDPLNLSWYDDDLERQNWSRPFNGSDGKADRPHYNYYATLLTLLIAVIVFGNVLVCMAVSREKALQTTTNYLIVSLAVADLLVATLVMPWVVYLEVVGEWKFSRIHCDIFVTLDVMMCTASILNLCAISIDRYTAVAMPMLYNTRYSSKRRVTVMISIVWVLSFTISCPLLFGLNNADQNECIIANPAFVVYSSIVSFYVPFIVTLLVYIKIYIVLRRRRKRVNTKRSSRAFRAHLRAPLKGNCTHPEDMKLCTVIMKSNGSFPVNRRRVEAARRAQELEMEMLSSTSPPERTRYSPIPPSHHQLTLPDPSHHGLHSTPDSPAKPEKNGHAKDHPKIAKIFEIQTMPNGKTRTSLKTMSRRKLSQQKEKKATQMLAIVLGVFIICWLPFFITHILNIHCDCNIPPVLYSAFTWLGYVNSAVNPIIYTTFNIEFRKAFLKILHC
# [7] = molecular target: T6, Follicle-stimulating hormone receptor (Homo sapiens) (UniProt P23945); assay: Antagonist activity at human FSHR expressed in CHO-K1 cells at 20 uM by PathHunter beta-arrestin assay relative to control; format: cell-based; settings: filed as antagonist
# T6 sequence (whole entry): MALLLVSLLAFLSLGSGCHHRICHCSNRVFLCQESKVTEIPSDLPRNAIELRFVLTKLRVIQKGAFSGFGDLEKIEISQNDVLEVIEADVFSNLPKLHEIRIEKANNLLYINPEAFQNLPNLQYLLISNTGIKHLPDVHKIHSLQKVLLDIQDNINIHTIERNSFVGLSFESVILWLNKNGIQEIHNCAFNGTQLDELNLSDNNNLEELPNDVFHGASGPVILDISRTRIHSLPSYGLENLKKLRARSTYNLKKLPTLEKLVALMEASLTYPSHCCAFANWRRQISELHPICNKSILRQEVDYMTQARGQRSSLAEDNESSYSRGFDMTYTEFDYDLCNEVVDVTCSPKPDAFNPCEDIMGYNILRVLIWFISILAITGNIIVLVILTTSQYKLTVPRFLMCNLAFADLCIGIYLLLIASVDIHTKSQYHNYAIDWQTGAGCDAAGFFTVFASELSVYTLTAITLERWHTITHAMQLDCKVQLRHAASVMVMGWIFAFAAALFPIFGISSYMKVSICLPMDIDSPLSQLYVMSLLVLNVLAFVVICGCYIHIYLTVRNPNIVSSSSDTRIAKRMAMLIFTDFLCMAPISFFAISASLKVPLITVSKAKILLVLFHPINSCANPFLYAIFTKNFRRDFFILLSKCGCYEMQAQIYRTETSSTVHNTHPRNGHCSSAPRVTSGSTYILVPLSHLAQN
# [8] = system: U2OS; assay: Antagonist activity at NPSR1B in human U2OS cells at 20 uM by PathHunter beta-arrestin assay relative to control; format: cell-based
# [9] = molecular target: T7, Oxytocin receptor (Homo sapiens) (UniProt P30559); assay: Antagonist activity at human OXTR expressed in CHO-K1 cells at 20 uM by PathHunter beta-arrestin assay relative to control; format: cell-based
# T7 sequence (whole entry): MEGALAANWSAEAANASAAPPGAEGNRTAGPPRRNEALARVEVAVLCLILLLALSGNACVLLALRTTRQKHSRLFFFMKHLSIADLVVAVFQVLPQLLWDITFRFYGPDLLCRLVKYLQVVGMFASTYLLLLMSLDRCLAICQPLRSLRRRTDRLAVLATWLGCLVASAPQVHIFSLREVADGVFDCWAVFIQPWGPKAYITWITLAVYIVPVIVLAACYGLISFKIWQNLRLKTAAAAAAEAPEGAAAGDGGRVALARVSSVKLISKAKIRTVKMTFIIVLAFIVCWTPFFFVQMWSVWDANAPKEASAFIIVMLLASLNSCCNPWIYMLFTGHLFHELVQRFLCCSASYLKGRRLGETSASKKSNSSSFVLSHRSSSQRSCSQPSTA
# [10] = molecular target: T8, Prolactin-releasing peptide receptor (Homo sapiens) (UniProt P49683); assay: Antagonist activity at human PRLHR expressed in CHO-K1 cells at 20 uM by PathHunter beta-arrestin assay relative to control; format: cell-based; settings: filed as antagonist
# T8 sequence (whole entry): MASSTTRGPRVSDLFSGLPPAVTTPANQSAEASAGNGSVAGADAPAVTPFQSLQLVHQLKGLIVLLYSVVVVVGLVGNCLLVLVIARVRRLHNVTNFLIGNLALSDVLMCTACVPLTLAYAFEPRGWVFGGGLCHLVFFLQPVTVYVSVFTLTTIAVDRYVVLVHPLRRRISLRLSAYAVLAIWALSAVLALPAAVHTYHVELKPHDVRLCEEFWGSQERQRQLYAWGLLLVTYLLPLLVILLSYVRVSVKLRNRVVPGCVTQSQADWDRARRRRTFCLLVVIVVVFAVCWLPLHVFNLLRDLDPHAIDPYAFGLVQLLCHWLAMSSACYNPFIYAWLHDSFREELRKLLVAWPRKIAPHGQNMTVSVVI
# [11] = molecular target: T9, Follicle-stimulating hormone receptor (Homo sapiens, UniProt P23945); assay: Antagonist activity at human FSHR expressed in CHO-K1 cells by PathHunter beta-arrestin assay; format: cell-based
# T9 sequence (P23945 whole entry): T6 sequence (whole entry)
# [12] = Antagonist activity at NPSR1B in human U2OS cells by PathHunter beta-arrestin assay; format: cell-based
# [13] = molecular target: T10, Prolactin-releasing peptide receptor (Homo sapiens, UniProt P49683); assay: Antagonist activity at human PRLHR expressed in CHO-K1 cells by PathHunter beta-arrestin assay; format: cell-based
# T10 sequence (P49683 whole entry): T8 sequence (whole entry)
# [14] = molecular target: T1, Vasopressin V2 receptor; assay: Agonist activity at human AVPR2 at 20 uM by PathHunter beta-arrestin assay relative to control
# [15] = molecular target: T2, C-C chemokine receptor type 3 (Homo sapiens); assay: Agonist activity at human CCR3 expressed in CHO-K1 cells at 20 uM by PathHunter beta-arrestin assay relative to control; format: cell-based
# [16] = molecular target: T3, C-C chemokine receptor type 8; assay: Agonist activity at human CCR8 expressed in CHO-K1 cells at 20 uM by PathHunter beta-arrestin assay relative to control; format: cell-based
# [17] = molecular target: T4, CX3C chemokine receptor 1 (Homo sapiens); assay: Agonist activity at human CX3CR1 expressed in CHO-K1 cells at 20 uM by PathHunter beta-arrestin assay relative to control; format: cell-based
# [18] = molecular target: T5, C-X-C chemokine receptor type 4; assay: Agonist activity at human CXCR4 expressed in mouse C2C12 cells at 20 uM by PathHunter beta-arrestin assay relative to control; format: cell-based
# [19] = molecular target: D(2) dopamine receptor (Homo sapiens) (UniProt P14416); assay: Agonist activity at human DRD2L expressed in CHO-K1 cells at 20 uM by PathHunter beta-arrestin assay relative to control; format: cell-based
# [20] = molecular target: T6, Follicle-stimulating hormone receptor (Homo sapiens); assay: Agonist activity at human FSHR expressed in CHO-K1 cells at 20 uM by PathHunter beta-arrestin assay relative to control; format: cell-based
# [21] = system: U2OS; assay: Agonist activity at NPSR1B in human U2OS cells at 20 uM by PathHunter beta-arrestin assay relative to control; format: cell-based
# [22] = molecular target: T7, Oxytocin receptor (Homo sapiens); assay: Agonist activity at human OXTR expressed in CHO-K1 cells at 20 uM by PathHunter beta-arrestin assay relative to control; format: cell-based
# [23] = molecular target: T8, Prolactin-releasing peptide receptor (Homo sapiens); assay: Agonist activity at human PRLHR expressed in CHO-K1 cells at 20 uM by PathHunter beta-arrestin assay relative to control; format: cell-based
# [24] = molecular target: T11, Oxytocin receptor (Homo sapiens, UniProt P30559); assay: Antagonist activity at human OXTR expressed in CHO-K1 cells by PathHunter beta-arrestin assay; format: cell-based
# T11 sequence (P30559 whole entry): T7 sequence (whole entry)
# T1 sequence (P30518 whole entry): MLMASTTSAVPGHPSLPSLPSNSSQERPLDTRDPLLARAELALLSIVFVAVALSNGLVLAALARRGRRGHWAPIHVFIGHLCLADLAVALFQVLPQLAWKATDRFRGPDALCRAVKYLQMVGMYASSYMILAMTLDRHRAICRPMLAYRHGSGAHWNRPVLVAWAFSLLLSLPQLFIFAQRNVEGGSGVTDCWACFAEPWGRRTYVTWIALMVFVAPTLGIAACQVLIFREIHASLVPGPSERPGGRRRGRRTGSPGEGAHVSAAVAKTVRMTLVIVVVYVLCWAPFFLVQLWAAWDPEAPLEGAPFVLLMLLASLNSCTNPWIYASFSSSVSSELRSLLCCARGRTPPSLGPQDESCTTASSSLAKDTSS
inhibition [3] [%],inhibition [4] [%],inhibition [7] [%],inhibition [9] [%],Activity [14],Activity [15],Activity [16],Activity [17],Activity [18],Activity [19],Activity [20],Activity [22],Activity [23],SMILES,inhibition ([1]; filed as antagonist) [%],inhibition [10] [%],Activity [21],also measured
78,53,94,-7,inactive,inactive,inactive,inactive,inactive,inactive,inactive,inactive,inactive,COC(=O)[C@@H]1[C@H]2C[C@@H](OCc3ccc(Br)cc3)c3[nH]c4ccccc4c3CCN(C#N)C[C@@H]2CC[C@@H]1O,1,82,inactive,inhibition ([2]; filed as antagonist): 50%; inhibition [5]: 29%; inhibition ([6]; filed as antagonist): 10%; inhibition ([8]; filed as antagonist): 87%; IC50 [11]: 8.03 µM; IC50 [12]: 10.3 µM; IC50 [13]: 4.89 µM
–,–,–,–,–,–,–,–,–,–,–,–,–,Cc1ccccc1N1CCN(S(=O)(=O)CC23CCC(C[C@@H]2NC(=O)[C@@H](N)CCS(C)(=O)=O)C3(C)C)CC1 (some centres undefined),–,–,–,IC50 [24]: 0.00462 µM
10,9,12,0,inactive,inactive,inactive,inactive,inactive,inactive,inactive,inactive,inactive,COC(=O)[C@@H]1[C@H]2C[C@H]3OCc4ccccc4-n4c3c(c3ccccc34)CCN(C#N)C[C@@H]2CC[C@@H]1O,–,–,inactive,inhibition [1]: -1%; inhibition [2]: -2%; inhibition [5]: 10%; inhibition [6]: -2%; inhibition ([8]; filed as antagonist): 1%
–,22,4,–,inactive,inactive,inactive,inactive,inactive,inactive,inactive,inactive,inactive,COC(=O)[C@@H]1[C@H]2C[C@H]3c4[nH]c5ccccc5c4CCN3C[C@@H]2CC[C@@H]1O,–,–,inactive,inhibition [1]: -1%; inhibition [8]: -3%; inhibition ([9]; filed as antagonist): 5%
15,20,5,–,inactive,inactive,inactive,inactive,inactive,inactive,inactive,inactive,inactive,COC(=O)[C@@H]1[C@H]2C[C@@H]3OCc4ccccc4-n4c3c(c3ccccc34)CCN(C#N)C[C@@H]2CC[C@@H]1O,16,5,inactive,inhibition ([2]; filed as antagonist): 2%; inhibition ([6]; filed as antagonist): 3%; inhibition ([9]; filed as antagonist): 27%

SMILES,inhibition [3] [%],inhibition [4] [%],inhibition [7] [%],inhibition [9] [%],Activity [14],Activity [15],Activity [16],Activity [17],Activity [18],Activity [19],Activity [20],Activity [22],Activity [23],inhibition ([1]; filed as antagonist) [%],inhibition [10] [%],Activity [21],also measured
COC(=O)[C@@H]1[C@H]2C[C@@H]3N(CC[C@@]34C(=O)N(c3cncc(OC)n3)c3ccccc34)C[C@@H]2CC[C@@H]1O,9,9,11,–,inactive,inactive,inactive,inactive,inactive,inactive,inactive,inactive,inactive,9,2,inactive,inhibition [2]: -7%; inhibition [6]: -8%
COC(=O)[C@@H]1[C@H]2C[C@@H]([C@@]3(CCn4cc(CCCCO)nn4)C(=O)Nc4ccccc43)N(C#N)C[C@@H]2CC[C@@H]1O,5,11,2,0,inactive,inactive,inactive,inactive,inactive,inactive,inactive,inactive,inactive,1,9,inactive,–
